Reference: patent US9204653B2, “5-fluoro pyrimidine derivatives” (DOW AGROSCIENCES LLC, priority 2008, dated 2015)
Read-outs that look alike come from different tables or passages of the source.

How the values were obtained:
[1] = system: Mycosphaerella graminicola; Anamorph: Septoria tritici; Bayer Code SEPTTR; assay: Leaf blotch of wheat, foliar fungicide treatment, one day protectant (1DP) or three day curative (3DC); type: in vivo, Septoria tritici on wheat plants (variety Yuma); details: Zymoseptoria tritici, rating of percent disease control
[2] = system: Cercospora beticola; Bayer Code CERCBE; assay: Leaf spot of sugar beets; type: in vivo, Cercospora beticola on sugar beets (variety HH-88); details: 24 h, % disease control rating, one day protectant; for pest or weed control at 25 ppm: read-out: CERCBE 1 DP 25 ppm; for pest or weed control at 75 ppm: read-out: CERCBE 1 DP 75 ppm
[3] = system: Venturia inaequalis; Bayer Code VENTIN; assay: Apple scab; type: in vivo; details: 24 h, % disease control rating, one day protectant; for pest or weed control at 25 ppm: read-out: VENTIN 1 DP 25 ppm; for pest or weed control at 75 ppm: read-out: VENTIN 1 DP 75 ppm
[4] = 24 h, one day protectant (1DP), read-out: SETTTR 1DP 25 ppm
[5] = 24 h, one day protectant (1DP), read-out: SEPTTR 1DP 100 ppm
[6] = 72 h, three day curative (3DC), read-out: SEPTTR 3DC 25 ppm
[7] = 72 h, three day curative (3DC), read-out: SEPTTR 3DC 100 ppm
[8] = 24 h, one day protectant, read-out: SETTTR 1DP 25 ppm
[9] = 24 h, one day protectant, read-out: SEPTTR 1DP 100 ppm
[10] = 72 h, three day curative, read-out: SEPTTR 3DC 25 ppm
[11] = 72 h, three day curative, read-out: SEPTTR 3DC 100 ppm

| SMILES | pest or weed control at 25 ppm [1, 4] | pest or weed control at 100 ppm [1, 5] | pest or weed control at 25 ppm [1, 6] | pest or weed control at 100 ppm [1, 7] | pest or weed control at 25 ppm [2] | pest or weed control at 75 ppm [2] | pest or weed control at 25 ppm [3] | pest or weed control at 75 ppm [3] | pest or weed control at 25 ppm [1, 8] | pest or weed control at 100 ppm [1, 9] | pest or weed control at 25 ppm [1, 10] | pest or weed control at 100 ppm [1, 11] |
| --- | --- | --- | --- | --- | --- | --- | --- | --- | --- | --- | --- | --- |
| Nc1nc(OCc2ccc(-c3ccccn3)s2)ncc1F [Compound 316] | 76 to 100% | 76 to 100% | 76 to 100% | 76 to 100% | 51 to 75% | 76 to 100% | 76 to 100% | 76 to 100% |  |  |  |  |
| CC(Oc1ncc(F)c(N)n1)c1cccc2ccccc12 (centres unmarked) [Compound 335] | 76 to 100% | 76 to 100% | 76 to 100% | 76 to 100% | 26 to 50% | 76 to 100% | 76 to 100% | 76 to 100% |  |  |  |  |
| CS(=O)(=O)Oc1ncc(F)c(N)n1 [Compound 337] | 26 to 50% | 76 to 100% | 26 to 50% | 26 to 50% | 51 to 75% | 76 to 100% | 51 to 75% | 76 to 100% |  |  |  |  |
| COc1c(F)cccc1COc1ncc(F)c(N)n1 [Compound 341] | 76 to 100% | 76 to 100% | 76 to 100% | 76 to 100% | 0 to 25% | 0 to 25% | 26 to 50% | 0 to 25% |  |  |  |  |
| Nc1nc(OCc2ccccc2N2CCOCC2)ncc1F [Compound 342] | 76 to 100% | 76 to 100% | 76 to 100% | 76 to 100% | 26 to 50% | 76 to 100% | 76 to 100% | 76 to 100% |  |  |  |  |
| CCOCNc1nc(OCc2cccs2)ncc1F [Compound 343] | 26 to 50% | 76 to 100% | 76 to 100% | 76 to 100% | 76 to 100% | 76 to 100% | 76 to 100% | 51 to 75% |  |  |  |  |
| CCNN(CC)c1nc(OCc2ccc(F)cc2)ncc1F [Compound 352] | 0 to 25% | 0 to 25% | 0 to 25% | 0 to 25% | 0 to 25% | 0 to 25% | 0 to 25% | 26 to 50% |  |  |  |  |
| NN(c1nc(OCc2ccc(F)cc2)ncc1F)C1CCCCC1 [Compound 353] | 0 to 25% | 0 to 25% | 0 to 25% | 0 to 25% | 26 to 50% | 26 to 50% | 26 to 50% | 76 to 100% |  |  |  |  |
| CC(Oc1ncc(F)c(N)n1)c1ccc(C(F)(F)F)nc1 (centres unmarked) [Compound 356] | 26 to 50% | 51 to 75% | 26 to 50% | 51 to 75% | 51 to 75% | 0 to 25% | 51 to 75% | 26 to 50% |  |  |  |  |
| Nc1nc(OCC2CCCC2)ncc1F [Compound 370] | 0 to 25% | 0 to 25% | 0 to 25% | 0 to 25% | 26 to 50% | 26 to 50% | 26 to 50% | 26 to 50% |  |  |  |  |
| Fc1cnc(OCc2ccccc2)nc1NNc1ccccn1 [Compound 373] | 0 to 25% | 0 to 25% | 26 to 50% | 51 to 75% | 0 to 25% | 0 to 25% | 0 to 25% | 26 to 50% |  |  |  |  |
| CN1CCCC1CCOc1ncc(F)c(N)n1 (centres unmarked) [Compound 384] | 51 to 75% | 76 to 100% | 26 to 50% | 76 to 100% | 0 to 25% | 0 to 25% | 51 to 75% | 0 to 25% |  |  |  |  |
| O=C(OCNc1nc(OCc2ccc(F)cc2)ncc1F)C1CC1 [Compound 410] | 51 to 75% | 76 to 100% | 51 to 75% | 76 to 100% | 26 to 50% | 26 to 50% | 26 to 50% | 51 to 75% |  |  |  |  |
| O=C(Nc1nc(OCc2ccc(F)cc2)ncc1F)c1cccc2nnsc12 [Compound 411] | 76 to 100% | 76 to 100% | 26 to 50% | 26 to 50% | 26 to 50% | 26 to 50% | 51 to 75% | 51 to 75% |  |  |  |  |
| CN(C)/C=N/c1nc(OCc2cccc(C#N)c2)ncc1F [Compound 418] | 76 to 100% | 76 to 100% | 76 to 100% | 76 to 100% | 0 to 25% | 0 to 25% | 51 to 75% | 51 to 75% |  |  |  |  |
| Cc1nc(COc2ncc(F)c(N)n2)cs1 [Compound 436] | 76 to 100% | 76 to 100% | 76 to 100% | 76 to 100% | 51 to 75% | 26 to 50% | 76 to 100% | 76 to 100% |  |  |  |  |
| CCOCNc1nc(OCc2ccc(OC)c(F)c2)ncc1F [Compound 452] | 76 to 100% | 76 to 100% | 76 to 100% | 76 to 100% | 0 to 25% | 0 to 25% | 0 to 25% | 26 to 50% |  |  |  |  |
| CC(C)(C)OC(=O)NOc1ncc(F)c(N)n1 [Compound 481] | 76 to 100% | 76 to 100% | 76 to 100% | 76 to 100% | 26 to 50% | 76 to 100% | 76 to 100% | 76 to 100% |  |  |  |  |
| CC(Oc1ncc(F)c(/N=C/N(C)C)n1)c1ccc(F)cc1 (centres unmarked) [Compound 483] | 76 to 100% | 76 to 100% | 76 to 100% | 76 to 100% | 0 to 25% | 0 to 25% | 26 to 50% | 76 to 100% |  |  |  |  |
| COc1ncc(Oc2ncc(F)c(N)n2)cn1 [Compound 488] | 0 to 25% | 0 to 25% | 0 to 25% | 0 to 25% | 0 to 25% | 0 to 25% | 26 to 50% | 26 to 50% |  |  |  |  |
| COc1ccccc1CCOc1ncc(F)c(N)n1 [Compound 524] | 0 to 25% | 51 to 75% | 0 to 25% | 51 to 75% | 0 to 25% | 0 to 25% | 51 to 75% | 51 to 75% |  |  |  |  |
| Cc1ccc(COc2ncc(F)c(NN)n2)cc1 [Compound 538] | 26 to 50% | 51 to 75% | 51 to 75% | 76 to 100% | 0 to 25% | 0 to 25% | 26 to 50% | 51 to 75% |  |  |  |  |
| Nc1nc(OCc2cc3ccccc3o2)ncc1F [Compound 554] |  |  |  |  | 0 to 25% | 51 to 75% | 76 to 100% | 76 to 100% | 26 to 50% | 76 to 100% | 26 to 50% | 76 to 100% |
| Nc1nc(OC2CCCc3cccnc32)ncc1F (centres unmarked) [Compound 560] |  |  |  |  | 0 to 25% | 26 to 50% | 0 to 25% | 76 to 100% | 0 to 25% | 26 to 50% | 0 to 25% | 76 to 100% |
| C=CCc1cc(COc2ncc(F)c(N)n2)cc(OC)c1OC [Compound 569] |  |  |  |  | 26 to 50% | 76 to 100% | 76 to 100% | 76 to 100% | 76 to 100% | 76 to 100% | 51 to 75% | 76 to 100% |
